# Active and inactive are the calls of the source.
# What was measured:
# [1] = target: T1, Sentrin-specific protease 8 (Homo sapiens, UniProt Q96LD8); type: functional
# T1 sequence (Q96LD8 whole entry): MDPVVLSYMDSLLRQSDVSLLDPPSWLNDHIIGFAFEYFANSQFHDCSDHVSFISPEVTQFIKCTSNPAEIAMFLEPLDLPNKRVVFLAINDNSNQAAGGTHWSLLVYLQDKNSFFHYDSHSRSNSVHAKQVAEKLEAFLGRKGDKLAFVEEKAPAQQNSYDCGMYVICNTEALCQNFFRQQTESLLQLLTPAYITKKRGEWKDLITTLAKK
# [2] = target: T1, Sentrin-specific protease 8; type: functional; remark: listed apart in the source
# Caspase-3 = target: T2, Caspase-3 (Homo sapiens, UniProt P42574); test: Dose-response confirmation of uHTS inhibitor hits of Sentrin-Specific Protease 8 in a Caspase-3 Fluorescence assay.; type: functional
# T2 sequence (P42574 whole entry): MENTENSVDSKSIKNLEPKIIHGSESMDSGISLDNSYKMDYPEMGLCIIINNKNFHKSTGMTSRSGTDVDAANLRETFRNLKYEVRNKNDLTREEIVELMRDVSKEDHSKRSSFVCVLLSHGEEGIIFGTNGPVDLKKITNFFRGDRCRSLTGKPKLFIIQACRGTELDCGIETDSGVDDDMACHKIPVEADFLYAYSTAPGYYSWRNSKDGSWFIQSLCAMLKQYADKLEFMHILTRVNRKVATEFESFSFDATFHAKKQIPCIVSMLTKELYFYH
# [3] = viability loss in HepG2 hepatoma cells – cell-based, ATP luminescence, cherry-pick, activator set 2, cytotoxicity control, dose response (AID 1053143); type: functional
# [4] = THP-1 cell cytotoxicity, dose response, cytotoxicity control for non-replicating M. tuberculosis project (AID 489025); type: functional
# [5] = HepG2 cell cytotoxicity, dose response, cytotoxicity control for non-replicating M. tuberculosis project (AID 489018); type: functional; details: Mycobacterium tuberculosis
# [6] = Vero E6 cell cytotoxicity, dose response, cytotoxicity control for non-replicating M. tuberculosis project, secondary assay (AID 492998); type: functional, VeroE6; details: Vero C1008
# [7] = blockers of HIV-1 envelope-mediated cell-cell fusion – cherry-pick, dose response (AID 652057); type: functional, cell-based
# [8] = blockers of HIV-1 ZM109 envelope-driven cell-cell fusion – HeLa effector, CEM target cells, luciferase, cherry-pick, dose response (AID 652058); type: functional, cell-based;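 further: luciferase signal from HIV-1 Env mediated cell-cell fusion of effector and target cells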
# Albumin = Albumin (Bos taurus, UniProt P02769); test: Counterscreen for inhibitors of T-cell receptor (TCR)-CD3 interaction: Fluorescence-based biochemical high throughput dose response assay to identify inhibitors of T-cell receptor (TCR)-CD3 interaction using a TAMRA-labeled BSA probe.; type: functional
# Sequence of Albumin (P02769 whole entry, the tested form may be a part): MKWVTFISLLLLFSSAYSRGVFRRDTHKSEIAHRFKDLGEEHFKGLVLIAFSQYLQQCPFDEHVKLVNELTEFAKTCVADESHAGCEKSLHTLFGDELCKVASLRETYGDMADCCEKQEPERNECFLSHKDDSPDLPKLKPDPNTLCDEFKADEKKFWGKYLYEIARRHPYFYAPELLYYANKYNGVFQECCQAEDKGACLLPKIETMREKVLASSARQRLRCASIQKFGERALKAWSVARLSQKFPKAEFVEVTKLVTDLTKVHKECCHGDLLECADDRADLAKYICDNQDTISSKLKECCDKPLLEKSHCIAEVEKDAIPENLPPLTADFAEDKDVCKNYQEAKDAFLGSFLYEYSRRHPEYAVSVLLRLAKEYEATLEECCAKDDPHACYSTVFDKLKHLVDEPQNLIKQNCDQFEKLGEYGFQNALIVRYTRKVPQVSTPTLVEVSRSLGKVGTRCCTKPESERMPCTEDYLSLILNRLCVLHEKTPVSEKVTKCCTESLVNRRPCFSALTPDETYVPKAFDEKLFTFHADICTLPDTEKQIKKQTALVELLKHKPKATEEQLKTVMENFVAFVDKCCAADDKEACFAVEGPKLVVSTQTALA
# [9] = off-target signal loss in HeLa-CEM21 co-culture – HeLa F-luc CTL cells, cherry-picked, counter-screen for HIV-1 Env fusion inhibitor project, dose response (AID 652040); type: functional, cell-based;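 further: potency for signal decrease marking cytotoxic or nonspecific inhibition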
# [10] = HIV-1 AD8 envelope cell-cell fusion blockers – cherry-pick, dose response (AID 652062); type: functional, cell-based;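 further: luciferase signal from cell-cell fusion driven by HIV-1 clade B AD8 Env; potency is for inhibitors of fusion seen as a drop in luminescence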
# SUMO-activating enzyme [11] = target: T3, SUMO-activating enzyme (Homo sapiens, UniProt Q9UBT2); test: blockers of UBC9-mediated SUMO conjugation – biochemical, AlphaScreen, SUMOylation inhibitor project, confirmation (AID 2018); type: functional
# T3 sequence (Q9UBE0 whole entry): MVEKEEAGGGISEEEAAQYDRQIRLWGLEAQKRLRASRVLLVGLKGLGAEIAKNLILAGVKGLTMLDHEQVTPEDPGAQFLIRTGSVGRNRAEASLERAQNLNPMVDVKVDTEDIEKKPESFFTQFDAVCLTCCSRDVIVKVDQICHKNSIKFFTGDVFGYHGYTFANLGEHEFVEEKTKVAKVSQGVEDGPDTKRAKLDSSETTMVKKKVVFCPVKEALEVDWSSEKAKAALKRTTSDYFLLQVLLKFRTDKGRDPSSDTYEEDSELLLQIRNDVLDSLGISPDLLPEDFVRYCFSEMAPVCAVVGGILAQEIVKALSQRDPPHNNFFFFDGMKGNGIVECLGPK
# T3 sequence (Q9UBT2 whole entry): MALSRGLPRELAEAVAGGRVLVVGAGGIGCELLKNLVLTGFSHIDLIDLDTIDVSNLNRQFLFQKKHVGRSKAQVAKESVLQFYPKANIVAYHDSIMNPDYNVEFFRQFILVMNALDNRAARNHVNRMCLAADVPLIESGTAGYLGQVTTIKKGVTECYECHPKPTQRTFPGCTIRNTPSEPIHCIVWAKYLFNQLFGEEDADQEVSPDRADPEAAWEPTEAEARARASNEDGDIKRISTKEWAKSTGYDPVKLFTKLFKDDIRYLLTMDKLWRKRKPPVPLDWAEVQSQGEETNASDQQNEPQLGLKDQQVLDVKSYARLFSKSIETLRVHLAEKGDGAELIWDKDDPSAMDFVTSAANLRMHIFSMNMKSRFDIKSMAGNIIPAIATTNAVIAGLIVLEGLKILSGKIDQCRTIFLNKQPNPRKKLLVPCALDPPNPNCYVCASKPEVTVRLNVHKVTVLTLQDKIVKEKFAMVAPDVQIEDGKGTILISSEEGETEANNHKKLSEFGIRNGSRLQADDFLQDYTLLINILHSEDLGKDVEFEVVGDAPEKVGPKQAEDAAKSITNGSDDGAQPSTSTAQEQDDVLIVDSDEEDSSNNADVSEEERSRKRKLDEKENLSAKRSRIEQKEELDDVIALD
# SUMO-activating enzyme [12] = target: T3, SUMO-activating enzyme; test: blockers of SAE1/SAE2–UBC9 SUMO transfer – biochemical, HTRF, uHTS, primary screen (AID 2006); type: protein-complex assay
# Genome polyprotein = Genome polyprotein (dengue virus type 2, UniProt P29990); test: flavivirus cap methylation enzyme inhibition – biochemical, confirmation dose response, primary screen (AID 588689); type: functional
# Sequence of Genome polyprotein (P29990 2492-3391 limits assumed): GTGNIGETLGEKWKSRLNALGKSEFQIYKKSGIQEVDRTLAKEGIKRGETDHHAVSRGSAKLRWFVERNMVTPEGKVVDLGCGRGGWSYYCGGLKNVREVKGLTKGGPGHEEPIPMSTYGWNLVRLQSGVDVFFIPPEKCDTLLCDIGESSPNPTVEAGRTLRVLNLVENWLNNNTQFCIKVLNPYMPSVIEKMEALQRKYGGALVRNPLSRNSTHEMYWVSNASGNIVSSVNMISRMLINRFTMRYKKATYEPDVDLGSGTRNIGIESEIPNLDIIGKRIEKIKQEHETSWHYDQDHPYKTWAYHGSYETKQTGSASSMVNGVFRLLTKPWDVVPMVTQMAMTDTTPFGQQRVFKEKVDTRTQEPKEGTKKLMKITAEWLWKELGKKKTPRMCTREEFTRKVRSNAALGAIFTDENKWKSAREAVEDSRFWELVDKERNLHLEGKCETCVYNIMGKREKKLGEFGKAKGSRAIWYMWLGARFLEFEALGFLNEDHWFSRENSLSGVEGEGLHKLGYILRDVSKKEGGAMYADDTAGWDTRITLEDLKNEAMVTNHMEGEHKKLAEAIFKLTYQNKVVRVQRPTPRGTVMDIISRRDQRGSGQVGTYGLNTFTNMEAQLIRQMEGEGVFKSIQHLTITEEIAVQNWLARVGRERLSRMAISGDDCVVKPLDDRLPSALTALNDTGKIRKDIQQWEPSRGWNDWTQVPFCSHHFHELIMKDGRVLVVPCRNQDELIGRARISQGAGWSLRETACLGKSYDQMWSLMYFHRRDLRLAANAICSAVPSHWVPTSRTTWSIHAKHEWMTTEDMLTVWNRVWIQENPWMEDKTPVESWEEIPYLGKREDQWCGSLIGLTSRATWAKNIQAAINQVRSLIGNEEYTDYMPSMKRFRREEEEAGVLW
# [13] = target: Long-chain-fatty-acid--AMP ligase FadD28 (Mycobacterium tuberculosis, UniProt P9WQ59); test: Fluorescence polarization aasay to screen for inhibitors that compete for the binding of FadD28 to a bisubstrate Measured in Biochemical System Using Plate Reader - 2147-01_Inhibitor_Dose_CherryPick_Activity.; type: functional, Mycobacterium tuberculosis H37Rv
# Sequence of Long-chain-fatty-acid--AMP ligase FadD28 (P9WQ59 whole entry): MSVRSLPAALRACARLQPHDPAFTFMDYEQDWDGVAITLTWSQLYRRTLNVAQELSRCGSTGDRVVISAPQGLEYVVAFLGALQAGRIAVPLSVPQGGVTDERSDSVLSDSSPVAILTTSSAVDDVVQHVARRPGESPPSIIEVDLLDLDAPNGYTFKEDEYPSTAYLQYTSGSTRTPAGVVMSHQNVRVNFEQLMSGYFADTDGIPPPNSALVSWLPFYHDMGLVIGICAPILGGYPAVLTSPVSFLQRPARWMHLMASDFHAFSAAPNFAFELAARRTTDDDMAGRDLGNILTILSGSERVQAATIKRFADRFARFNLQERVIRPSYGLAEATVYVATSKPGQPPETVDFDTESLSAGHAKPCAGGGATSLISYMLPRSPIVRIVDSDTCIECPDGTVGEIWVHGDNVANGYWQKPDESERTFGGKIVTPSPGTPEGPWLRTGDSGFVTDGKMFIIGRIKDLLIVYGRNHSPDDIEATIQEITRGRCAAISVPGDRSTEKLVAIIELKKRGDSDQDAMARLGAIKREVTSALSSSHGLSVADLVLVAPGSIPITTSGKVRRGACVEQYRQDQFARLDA
# cells [14] = type: functional, cell-based
# [15] = target: T4, Trace amine-associated receptor 1 (Homo sapiens, UniProt Q96RJ0); test: Fluorescence-based cell-based high throughput dose response assay to identify agonists of the human trace amine associated receptor 1 (TAAR1).; type: functional
# T4 sequence (Q96RJ0 whole entry): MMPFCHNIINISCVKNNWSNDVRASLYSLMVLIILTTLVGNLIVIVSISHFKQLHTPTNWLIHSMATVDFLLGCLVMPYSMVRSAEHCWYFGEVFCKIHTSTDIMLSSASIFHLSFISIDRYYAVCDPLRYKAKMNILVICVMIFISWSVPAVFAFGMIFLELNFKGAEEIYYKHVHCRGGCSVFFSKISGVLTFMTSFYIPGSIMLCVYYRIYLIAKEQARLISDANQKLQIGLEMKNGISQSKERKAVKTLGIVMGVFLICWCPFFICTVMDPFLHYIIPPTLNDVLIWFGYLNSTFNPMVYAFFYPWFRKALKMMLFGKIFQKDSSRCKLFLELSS
# [16] = target: T4, Trace amine-associated receptor 1; test: Counterscreen for agonists of the human trace amine associated receptor 1 (hTAAR1): Fluorescence-based cell-based high throughput dose response assay to identify hTAAR1 agonist that also desensitize TAAR1 receptor response.; type: functional
# cells [17] = type: functional, cell-based; remark: listed apart in the source
# Protein skinhead-1 = target: T5, Protein skinhead-1 (Caenorhabditis elegans, UniProt P34707); type: functional
# T5 sequence (P34707 whole entry): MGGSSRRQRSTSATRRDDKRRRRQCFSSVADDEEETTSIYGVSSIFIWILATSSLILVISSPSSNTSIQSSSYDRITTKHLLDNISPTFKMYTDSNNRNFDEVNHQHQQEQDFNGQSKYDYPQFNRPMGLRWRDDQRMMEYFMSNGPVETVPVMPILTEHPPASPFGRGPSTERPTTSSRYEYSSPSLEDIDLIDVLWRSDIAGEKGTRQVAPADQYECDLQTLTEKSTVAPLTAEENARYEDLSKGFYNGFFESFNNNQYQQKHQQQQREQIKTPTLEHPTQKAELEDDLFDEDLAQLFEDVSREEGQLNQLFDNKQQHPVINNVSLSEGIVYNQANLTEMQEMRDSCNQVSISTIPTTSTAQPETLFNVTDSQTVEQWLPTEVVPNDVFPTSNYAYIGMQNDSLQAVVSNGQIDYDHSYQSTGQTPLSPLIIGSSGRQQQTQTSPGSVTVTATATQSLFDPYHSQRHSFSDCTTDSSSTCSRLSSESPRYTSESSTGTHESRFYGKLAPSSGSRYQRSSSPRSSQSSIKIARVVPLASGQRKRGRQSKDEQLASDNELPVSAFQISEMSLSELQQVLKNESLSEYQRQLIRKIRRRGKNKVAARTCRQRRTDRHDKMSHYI
# [18] = target: DNA repair protein RAD52 homolog (Homo sapiens, UniProt P43351); type: functional, biochemical
# Sequence of DNA repair protein RAD52 homolog (P43351 whole entry): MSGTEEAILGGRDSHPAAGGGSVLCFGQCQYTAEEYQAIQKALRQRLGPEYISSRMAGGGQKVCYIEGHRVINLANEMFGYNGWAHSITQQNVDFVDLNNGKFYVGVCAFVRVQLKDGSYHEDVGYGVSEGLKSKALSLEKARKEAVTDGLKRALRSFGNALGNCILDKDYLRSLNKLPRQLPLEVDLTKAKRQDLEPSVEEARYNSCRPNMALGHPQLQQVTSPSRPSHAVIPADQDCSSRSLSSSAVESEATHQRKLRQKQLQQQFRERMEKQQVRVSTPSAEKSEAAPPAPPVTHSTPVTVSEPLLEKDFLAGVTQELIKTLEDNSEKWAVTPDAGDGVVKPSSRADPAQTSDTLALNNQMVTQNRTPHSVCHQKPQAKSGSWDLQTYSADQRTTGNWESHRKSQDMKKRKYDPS
# [19] = target: T6, Histone-lysine N-methyltransferase NSD2 (Homo sapiens, UniProt O96028); type: biochemical
# T6 sequence (O96028 whole entry): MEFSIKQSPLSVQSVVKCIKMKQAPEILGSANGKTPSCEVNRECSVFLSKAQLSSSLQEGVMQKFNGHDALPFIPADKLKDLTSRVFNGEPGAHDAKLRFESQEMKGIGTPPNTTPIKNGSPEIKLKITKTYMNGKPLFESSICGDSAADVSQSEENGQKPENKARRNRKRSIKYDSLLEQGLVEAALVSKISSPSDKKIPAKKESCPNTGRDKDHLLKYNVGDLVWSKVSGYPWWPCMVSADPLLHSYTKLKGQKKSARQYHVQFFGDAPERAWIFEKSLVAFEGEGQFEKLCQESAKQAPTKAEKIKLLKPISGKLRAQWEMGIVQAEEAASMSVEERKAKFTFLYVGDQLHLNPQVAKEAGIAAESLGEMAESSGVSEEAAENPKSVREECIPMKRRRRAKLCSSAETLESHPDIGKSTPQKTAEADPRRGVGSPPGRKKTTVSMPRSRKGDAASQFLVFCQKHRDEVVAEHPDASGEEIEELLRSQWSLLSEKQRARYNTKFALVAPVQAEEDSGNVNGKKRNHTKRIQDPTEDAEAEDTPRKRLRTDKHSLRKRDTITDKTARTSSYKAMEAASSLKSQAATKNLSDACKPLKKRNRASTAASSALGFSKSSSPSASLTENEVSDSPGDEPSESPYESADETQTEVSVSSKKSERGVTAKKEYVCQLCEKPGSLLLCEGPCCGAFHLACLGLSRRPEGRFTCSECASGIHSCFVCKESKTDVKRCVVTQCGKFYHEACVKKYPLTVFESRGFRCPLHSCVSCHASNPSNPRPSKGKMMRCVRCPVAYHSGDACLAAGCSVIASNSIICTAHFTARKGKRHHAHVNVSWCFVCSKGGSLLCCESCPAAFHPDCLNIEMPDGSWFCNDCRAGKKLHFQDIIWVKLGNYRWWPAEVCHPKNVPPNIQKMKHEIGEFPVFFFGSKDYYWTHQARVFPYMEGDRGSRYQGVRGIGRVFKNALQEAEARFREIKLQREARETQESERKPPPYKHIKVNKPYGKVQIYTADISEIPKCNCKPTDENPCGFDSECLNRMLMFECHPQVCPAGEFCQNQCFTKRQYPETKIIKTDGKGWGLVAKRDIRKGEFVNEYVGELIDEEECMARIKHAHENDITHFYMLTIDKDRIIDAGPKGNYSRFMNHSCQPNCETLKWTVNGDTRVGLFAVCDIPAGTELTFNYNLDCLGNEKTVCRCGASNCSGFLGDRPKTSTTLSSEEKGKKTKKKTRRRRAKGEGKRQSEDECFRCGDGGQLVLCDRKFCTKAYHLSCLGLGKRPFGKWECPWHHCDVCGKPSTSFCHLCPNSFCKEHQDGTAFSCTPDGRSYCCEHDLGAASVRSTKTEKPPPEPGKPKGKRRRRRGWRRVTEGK
# [20] = target: Fructose-bisphosphate aldolase (Mycobacterium tuberculosis, UniProt P9WQA3); test: Fluorescence-based biochemical high throughput dose response assay for inhibitors of the fructose-bisphosphate aldolase (FBA) of M. tuberculosis.; type: functional
# Sequence of Fructose-bisphosphate aldolase (P9WQA3 whole entry): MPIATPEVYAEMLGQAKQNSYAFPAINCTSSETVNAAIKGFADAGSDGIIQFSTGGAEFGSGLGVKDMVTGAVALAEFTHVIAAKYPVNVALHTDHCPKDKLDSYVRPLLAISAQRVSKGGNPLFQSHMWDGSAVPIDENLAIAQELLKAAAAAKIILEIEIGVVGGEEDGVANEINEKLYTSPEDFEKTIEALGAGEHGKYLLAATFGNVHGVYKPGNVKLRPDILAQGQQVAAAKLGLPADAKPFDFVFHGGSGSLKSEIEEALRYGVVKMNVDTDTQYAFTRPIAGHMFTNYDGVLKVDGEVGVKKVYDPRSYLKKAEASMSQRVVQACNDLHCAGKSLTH
# [21] = HGIII-sPLA2 enzyme inhibition potency – biochemical, QFRET, IC50, dose response (AID 743457);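 further: green fluorescence rise as the enzyme cleaves BODIPY PC-A2 in liposomes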
# [22] = target: Nuclear receptor subfamily 5 group A member 2 (Homo sapiens, UniProt O00482); type: functional, cell-based;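 further: HEK293T cells transfected with LRH-1 and a StAR promoter luciferase reporter; potency for inhibitors that lower LRH-1 driven reporter light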
# Sequence of Nuclear receptor subfamily 5 group A member 2 (O00482 whole entry): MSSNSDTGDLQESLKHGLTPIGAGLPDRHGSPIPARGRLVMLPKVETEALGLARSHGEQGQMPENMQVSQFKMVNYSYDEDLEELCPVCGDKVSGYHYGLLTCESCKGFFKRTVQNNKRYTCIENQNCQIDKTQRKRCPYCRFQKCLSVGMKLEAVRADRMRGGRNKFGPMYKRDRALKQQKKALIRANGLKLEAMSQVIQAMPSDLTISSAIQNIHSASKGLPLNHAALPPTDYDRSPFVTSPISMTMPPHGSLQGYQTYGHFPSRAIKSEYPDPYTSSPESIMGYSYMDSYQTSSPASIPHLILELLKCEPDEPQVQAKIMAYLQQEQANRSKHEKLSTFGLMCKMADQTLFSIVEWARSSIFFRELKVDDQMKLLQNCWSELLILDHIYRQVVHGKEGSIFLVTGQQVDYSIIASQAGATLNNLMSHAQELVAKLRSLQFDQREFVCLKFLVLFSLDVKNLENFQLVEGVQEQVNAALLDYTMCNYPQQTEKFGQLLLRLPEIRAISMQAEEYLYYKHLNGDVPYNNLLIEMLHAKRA
# Steroidogenic factor 1 = Steroidogenic factor 1 (Homo sapiens, UniProt Q13285); test: Counterscreen for inverse agonists of the liver receptor homolog-1 (LRH-1; NR5A2): Luminescence-based cell-based high throughput dose response assay to identify inverse agonists of the Steroidogenic Factor 1 Nuclear Receptor (SF1; NR5A1).; type: functional
# Sequence of Steroidogenic factor 1 (Q13285 whole entry): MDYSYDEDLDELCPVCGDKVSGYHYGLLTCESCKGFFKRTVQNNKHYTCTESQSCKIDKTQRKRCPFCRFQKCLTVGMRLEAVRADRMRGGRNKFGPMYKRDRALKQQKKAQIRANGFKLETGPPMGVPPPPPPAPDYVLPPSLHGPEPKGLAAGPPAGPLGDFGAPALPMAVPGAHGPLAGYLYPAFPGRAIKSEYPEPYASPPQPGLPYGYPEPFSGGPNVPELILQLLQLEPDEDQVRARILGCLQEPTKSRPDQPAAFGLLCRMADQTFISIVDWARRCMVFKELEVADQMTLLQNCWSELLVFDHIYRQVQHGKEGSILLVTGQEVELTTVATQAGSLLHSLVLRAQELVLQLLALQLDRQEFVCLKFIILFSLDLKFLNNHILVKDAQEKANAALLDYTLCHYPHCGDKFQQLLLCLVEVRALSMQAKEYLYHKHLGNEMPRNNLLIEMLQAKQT
# [23] = nonselective StAR promoter luciferase inhibitors – cell-based, luminescence, luciferase reporter, counter-screen for LRH-1 inverse agonist project, dose response (AID 651969); type: functional
structure (smiles),measurement,setting,value
COc1ccc(N2C(=O)[C@@H]3[C@H](C2=O)[C@H]2c4ccccc4C=CN2[C@@H]3C(C)=O)cc1,IC50,[1],1.19 µM (active)
same,IC50,[2],0.543 µM (active)
same,IC50,Caspase-3,3.03 µM (active)
COc1ccc(Nc2ccnc(Nc3ccc(OC)cc3)n2)cc1,AC50,[3],26 µM (active)
CC1=NN(C(=O)c2ccccc2)C(O)(c2ccc(Br)cc2)C1 (stereo unspecified),CC50,[4],22.8 µM (active)
same,CC50,[5],> 20 µM (active)
same,CC50,[6],> 20 µM (active)
same,AC50,[7],9.38 µM (active)
same,AC50,[8],8 µM (active)
same,IC50,Albumin,> 94.2 µM (inactive)
same,AC50,[9],21.6 µM (active)
same,AC50,[10],42.2 µM (active)
CCOc1ccc(C(=O)CCC(=O)NNC(=O)c2ccccc2O)cc1,IC50,Albumin,> 94.1 µM (inactive)
CCC(C)(C)C1CCc2c(sc(NC(=O)c3ccccc3C(=O)O)c2C#N)C1 (stereo unspecified),IC50,SUMO-activating enzyme [11],15.3 µM (active)
same,IC50,SUMO-activating enzyme [12],21.4 µM (active)
same,IC50,Genome polyprotein,42.6 µM (active)
same,AC50,[13],37.3 µM (active)
COc1ccc(C(=O)NCCc2c[nH]c3ccccc23)cc1S(=O)(=O)N1CCOCC1,AC50,[13],82.7 µM (active)
Cc1cc(C(=O)CN2C(=O)C(=O)N(C3CCCC3)C2=O)c(C)n1CCc1ccc(F)cc1,IC50,cells [14],> 29.9 µM (inactive)
same,EC50,[15],2.96 µM (active)
same,IC50,[16],5.57 µM (active)
same,EC50,cells [17],> 29.9 µM (inactive)
Cc1c(C)n(Cc2ccccc2)c2ccc(C(=O)OCCN(C)C)cc12,IC50,Protein skinhead-1,58.2 µM (inactive)
same,AC50,[18],14 µM (active)
same,AC50,[19],> 20 µM (inactive)
CCc1c(C)nc2c(-c3ccccc3)cnn2c1O,IC50,[20],3.39 µM (active)
same,IC50,[21],> 122 µM (inactive)
O=C(Cc1ccccc1)c1nc2ccccc2s1,IC50,[1],26.7 µM (active)
same,IC50,[2],6.06 µM (active)
same,IC50,Caspase-3,25 µM (active)
COc1ccc2cc3cc(C(=O)N4CCN(C5CCCCC5)CC4)oc3nc2c1,IC50,[20],0.92 µM (active)
O=C(CN1C(=O)NC2(CCCC2)C1=O)NCCc1ccc(F)cc1,IC50,[22],35.9 µM (inactive)
same,IC50,Steroidogenic factor 1,6.2 µM (active)
same,IC50,[23],35.9 µM (inactive)
CC(C)[C@H](NC(=O)C1CC1)C(=O)N1CCC[C@H]1C(=O)NCCc1ccccc1Cl,IC50,cells [14],> 29.9 µM (inactive)
same,EC50,[15],3.03 µM (active)
same,IC50,[16],3.18 µM (active)
same,EC50,cells [17],> 29.9 µM (inactive)
COc1ccc(/C=N/NC(=O)c2ccc(NC(=O)c3cccc([N+](=O)[O-])c3)cc2)c(OC)c1,IC50,[22],23.1 µM (inactive)
same,IC50,Steroidogenic factor 1,3.07 µM (active)
same,IC50,[23],35.9 µM (inactive)
